Experiments:
Parameters in all cases: dose 400 mg/kg, route oral
Conditions in all cases: in vivo
[1] = system: Homo sapiens; assay: Toxicity in healthy human assessed as abdominal pain at 400 mg/kg, po administered as single dose; assay type: organism-based, Abdomen
[2] = system: Homo sapiens; assay: Toxicity in healthy human assessed as dizziness at 400 mg/kg, po administered as single dose; assay type: organism-based
[3] = system: Homo sapiens; assay: Toxicity in healthy human assessed as nausea at 400 […], po administered as single dose; assay type: organism-based
[4] = system: Homo sapiens; assay: Cardiotoxicity in healthy human assessed as change in corrected QT interval at 400 mg/kg, po within 3 hrs by ECG; assay type: toxicity, organism-based
[5] = system: Homo sapiens; assay: Toxicity in healthy human assessed as diarrhea at 400 mg/kg, po administered as single dose; assay type: organism-based
[6] = system: Homo sapiens; assay: Cardiotoxicity in healthy human assessed as change in corrected QT interval at 400 mg/kg, po within 12 hrs by ECG; assay type: toxicity, organism-based
[7] = system: Homo sapiens; assay: Toxicity in healthy human assessed as headache at 400 […], po administered as single dose; assay type: organism-based

## COc1c(N2C[C@@H]3CCCN[C@@H]3C2)c(F)cc2c(=O)c(C(=O)O)cn(C3CC3)c12 [MOXIFLOXACIN]
[1]
  Activity: 5%
[2]
  Activity: 0%
[3]
  Activity: 3%
[4]
  Activity: Non-toxic
[5]
  Activity: 3%
[6]
  QTc change: 10 ms
[7]
  Activity: 5%

— ChEMBL document CHEMBL1255486, “Effect of vicriviroc on the QT/corrected QT interval and central nervous system in healthy subjects” (Antimicrob Agents Chemother, 2010)
